Measured values reported in patent publication US5652222A, “Selective inhibition of leukemic cell proliferation by bcr-abl antisense oligonucleotides” (Temple University-of The Commonwealth System of Higher …, priority 1993, dated 1997).

Legend:
[1] = tested on: cell line ALL-1 (b1a2 junction); experiment: Leukemic cell number of Ph1-positive ALL cell line expressing b1a2 junction; assay type: cell-based, human; conditions: 50 μg at time zero, 25 μg/ml at 24 and 48 h; vs control and mismatch-treated cultures (FIG. 6)
K562 = conditions: Caracciolo et al., Science 245; cited from earlier work
bcr-abl protein = conditions: cited from earlier work
BV173 cells (b2/a2) = experiment: Proliferation of BV173 cells expressing b2a2 junction; assay type: cell-based, human
Description: Amplification of the bcr-abl junction with a 5' primer corresponding to bcr exon 2, and a 3' primer corresponding to abl exon 2, followed by hybridization to an 18-mer specific for the b2/a2 or the b3/a2 junction identified the b2/a2 breakpoint in these cells (data not shown).
The sensitivity of the BV173 cells to b2/a2 antisense phosphorothioate oligodeoxynucleotides was assessed. Phosphorothioate oligodeoxynucleotides were prepared on either an Applied Biosystems Model 380B or 390Z Automated Synthesis instrument using conventional phosphoramidite monomers and manufacturer-recommended procedures, which included substitution of tetraethylthiuran (or an equivalent sulfur-donor reagent) for iodine-water-pyridine, […] reversed-phase preparative chromatography, detritylation, and obtaining the final product in the form of its sodium salt, all according to previously published methodology: Zon and Stec, in Oligonucleotides and Analogues A Practical Approach, F. Eckstein, Ed. (Oxford Univerisity Press, Oxford 1991), pp. 87-108; Zon and Geiser, Anti-Cancer Drug Design 6, 539 (1991); Vu and Hirschenbein, Tetrahedron Lett. 32, 3005-3008 (1991).
BV173 cells were cultured in the presence of phosphorothioate b2/a2 antisense 26-mer CGCTGAAGGG CTTCTTCCT ATTGAT (SEQ ID NO:29), the phosphorothioate sense sequence ATCAATAAGGAAGCCCTTCAGCG (SEQUENCE ID NO:34), or the b3/a2 (SEQ ID NO:31) or b1/a2 (SEQ ID N0:33) phosphorothioate antisense 26-mer. […] The sense oligomer SEQ ID NO:34 gave no inhibition (FIG. 7, -.largecircle.-) in comparison to untreated control cells (FIG. 7, -.quadrature.-).

BV173 cells [2] = experiment: Clonogenic assay of tissues of leukemic SCID mice; assay type: in vivo, SCID mice (human leukemic cells)
Description: A second assay for leukemic disease comprised a clonogenic assay in semisolid medium. […] By contrast, BV173 cells formed numerous, rapidly growing colonies. To rule out the possibility that the presence of BV173 cells permitted the growth of murine progenitors, mixing experiments were carried out.
(§1) To determine whether synthetic phosphorothioate oligodeoxynucleotides targeted against the bcr-abl junction of […] cells would modify the disease process in SCID mice. SCID mice were injected with 10^6 BV173 cells. The mice then received 1 mg of sense (ATCAATAAGG AAGCCCTTCAGCG, SEQ ID NO:34) or antisense ([…] ATTGAT, SEQ ID NO:29) b2/a2 bcr-abl phosphorothioate oligodeoxynucleotides (pyrogen leven <1 Eu/mg; 0.2 ml in Iscove modified Dulbecco medium in 5-10 seconds) intravenously for each of 9 consecutive days, beginning either 7 or 21 days after introducing 10^6 BV173 cells. Control mice received the diluent (iscove's modified Dulbecco medium) only. These time points approximate distinct disease stages in humans.
10^5 cells were plated in duplicate in 35×10 mm tissue culture dishes (Nunc, Inc., Naperville, Ill.) in HCC-4230 medium (Terry Fox Lab., Vancouver, Canada) supplemented with 2.5 mM L-glutamine, and allowed to grow for 12 days. Plates were scanned with an inverted microscope and total colony number was determined. The results are shown in FIG. 9 (C, untreated mouse; S, sense-treated mouse, AS, antisense-treated mouse).

[3] = tested on: BV173 cells (cALL antigen (CALLA)-positive cells); experiment: Immunofluorescence / flow cytometry of CALLA-positive cells in tissues of leukemic SCID mice; assay type: in vivo, SCID mice (human leukemic cells)
Description: A first assay comprised an immunofluorescence analysis of cALL antigen (CALLA)-positive cells. All BV173 cells but not normal murine hematopoietic cells express this antigen (assay sensitivity=10^-2). Single cell suspensions were prepared for flow cytometry analysis from peripheral blood, spleen and bone marrow cells of the leukemic SCID mice by centrifugation on a lymphocyte-M gradient (Cedarlane Labs, Ltd., Ontario, Canada). Cells (1×10^5) were stained with the FITC-conjugated mouse anti-CALLA monoclonal antibody (Becton-Dickinson Immunocytometry Systems, San Jose, Calif.) to human CD10 antigen. After staining, cells were washed and analyzed by flow cytometry using the Epics Profile Analyzer (Coulter Electronic).
as §1

[4] = tested on: bcr-abl (b2/a2) transcripts; experiment: RT-PCR of bcr-abl transcripts in tissues of leukemic SCID mice; assay type: in vivo, SCID mice (human leukemic cells)
Description: According to a third assay, the extent of leukemic disease was assessed by chain RT-PCR to monitor the expression of b2/a2 transcripts (assay sensitivity=[…]) in total RNA isolated from bone marrow cells, splenocytes, peripheral blood leukocytes, liver, lung and brain tissues. Depending on the number of BV173 cells injected, various numbers of leukemic cells were detected by clonogenic assay and RT-PCR in murine tissues, 3 and 6 weeks after injection. A few days before the expected death of leukemic SCID mice, approximately 80, 65, and 10% cALLA-positive cells were detected in bone marrow cells, splenocytes and peripheral blood leukocytes, respectively.
as §1
At 7 (+7) and 21 (+21) days after injecting SCID mice with 10^6 BV173 cells, single cell suspensions were prepared from various tissues. After lysing red cells with 0.83% NH4 Cl buffered with 0.17 mM Tris-HCl, pH 7.4, total RNA was extracted as described (Chomczynski and Sacchi, Anal. Biochem. 162, 156 (1987)) and the suspension was divided into two equal aliquots. Bcr-abl and β-actin transcripts were reverse-transcribed and amplified with specific primers and Taq polymerase as described by Szczylik et al., Science 253, 562 (1991). Amplification products were separated on a 2% agarose gel, transferred to a nitrocellulose filter and hybridized with a synthetic 40-base c-abl fragment or 20-base β-actinfragment end-labeled with [γ^32 -P]-ATP and polynucleotide kinase. The c-abl probe recognizes an amplified 257-bp sequence containing the bcr-abl junction: the β-actin probe recognizes a 209-bp fragment, contained within the 5' and 3' β-actin primers (Tokunaga et al., Nucleic Acids Res. 14, 2829 (1986)).

BV173 cells [5] = experiment: Macroscopic examination / disease state of leukemic SCID mice; assay type: in vivo, SCID mice (human leukemic cells)
Description: Injection of the mice with BV173 cells induces a disease closely resembling that in human leukemia patients.
as §1

BV173 cells [6] = experiment: Survival of leukemic SCID mice; assay type: in vivo, SCID mice (human leukemic cells); conditions: treatment starting from days +7 or +21 (FIG. 12)
From the text: To determine the lethal dose of BV173 cells in the SCID mice, we injected from 10^3 to 10^7 cells into the tail vein and monitored survival at various times postinjection. Mice injected with 10^7, 10^6, 10^5, or 10^4 BV173 cells died 8-10, 9-12, 13-15, or 14-22 weeks later, respectively, due to leukemia cell growth as confirmed on necroscopy. Spleen weight was about 40 times higher than that in noninjected SCID mice while liver and kidneys had numerous metastases and were enlarged 10-fold as compared to noninjected mice. Mice injected with 10^3 BV173 cells were still alive 35 weeks post implantation, and leukemia was never detected. From this study, 10^6 cells was taken as a lethal dose.
as §1

[7] = assay type: in vivo, SCID mice; conditions: mice treated with bcr-abl antisense
Description: Severe combined immunodeficient (SCID) mice injected with leukemia cells developed a disease process closely resembling that in humans. […] The cell-associated accumulation of antisense oligomer in various organs reached 4-60 μM, which is more than adequate to inhibit growth of leukemic cells. (See FIG. 7).

[8] = from day +21, 26 days after treatment (8 weeks)

## SEQ ID NO:9: 18-mer antisense oligonucleotide GAAGGGCTTC TGCGTCTC completely complementary to the b1a2 junction (antisense GAAGGGCTTCTGCGTCTC; chemistry not given here)
[1]
  leukemic cell number: significant reduction in leukemic cell number over the control and mismatch-treated cultures

## SEQ ID NO:27: antisense oligodeoxynucleotide TACTGGCCGC TGAAGGGC complementary to 18 nucleotides of the second exon of c-abl (antisense TACTGGCCGCTGAAGGGC; DNA, backbone and methylation of C not given here)
K562
  inhibition of the Ph1-positive cell line K562: inhibition of the Ph^1 -positive cell line K562
bcr-abl protein; Caracciolo et al., Science 245
  reducing bcr-abl protein levels: effective in reducing bcr-abl protein levels
bcr-abl protein; hybridization to message from untranslocated abl
  specificity for the bcr-abl junction: not specific for the bcr-abl junction, as it also hybridizes to the message from untranslocated abl

## SEQ ID NO:29: b2a2 antisense phosphorothioate 26-mer CGCTGAAGGGCTTCTTCCTT ATTGAT (antisense CGCTGAAGGGCTTCTTCCTTATTGAT; all phosphorothioate, sugars by position and methylation of C not given here)
BV173 cells (b2/a2); 3.0 μM, 9 days in culture
  inhibition of proliferation: 100%
BV173 cells (b2/a2); in comparison to untreated control cells (FIG. 7)
  inhibition of proliferation of BV173 cells: Only the b2/a2 antisense oligodeoxynucleotide inhibited the proliferation of BV173 cells
BV173 cells [2]; 1 mg/day i.v. x9 from day +7, killed 26 days after last treatment (6 weeks)
  leukemic colonies, peripheral blood leukocytes: no detectable colonies
BV173 cells [2]; 1 mg/mouse/day x9 from day +21, 12 days after last treatment (6 weeks), untreated 11.0±8.5
  leukemic colonies, peripheral blood mononuclear cells: 0 colonies
BV173 cells [2]; 1 mg/mouse/day x9 from day +21, 12 days after last treatment (6 weeks), untreated 80.5±12.0
  leukemic colonies, spleen: 0 colonies
BV173 cells [2]; 1 mg/mouse/day x9 from day +21, 26 days after treatment (8 weeks)
  leukemic colonies, bone marrow: not after antisense treatment
[3]; from day +7, 26 days after last treatment (6 weeks)
  CALLA+ cells in tissues: No CALLA+ cells were detected
[3]; from day +21, 12 days after last treatment (6 weeks)
  CALLA+ cells in tissues: not detected after antisense treatment
[3]; [8]
  CALLA+ cells in tissues: not detected in the antisense-treated mouse
[4]; from day +7, 12 days after last treatment (4 weeks), blood, spleen, bone marrow, liver, lung, brain
  bcr-abl transcripts in tissues: not in the antisense-treated mouse
[4]; from day +7, 26 days after last treatment (6 weeks), blood leukocytes, spleen, bone marrow, liver, lung, brain
  bcr-abl (b2/a2) transcripts in tissues: no bcr-abl (b2/a2) transcripts in the tissues
[4]; [8]
  RT-PCR product (bcr-abl), spleen: less abundant than in the sense-treated mouse
  bcr-abl transcripts in tissues: undetectable after antisense-treatment in each tissue analyzed except spleen
BV173 cells [5]; 1 mg/mouse x9 i.v. from day 7
  apparently disease-free, days after injection of leukemic cells: ≥ 42 days
BV173 cells [5]; 1 mg/mouse x9 i.v. from day 21
  apparently disease-free, days after injection of leukemic cells: ≥ 56 days
BV173 cells [5]; SCID mice injected with BV173 cells
  protection from leukemic disease: protected from the disease
BV173 cells [5]; from day +21, 26 days after treatment (8 weeks), FIG. 11
  macroscopic examination: metastases / leukemic nodules in liver, kidneys, splenomegaly: not in antisense-treated animal
BV173 cells [6]
  mortality / survival outcome: prolonged survival
  survival after i.v. injection of 10^6 BV173 cells: ≥ 16 weeks
[7]
  cell-associated accumulation of antisense oligomer in various organs: 4 to 60 µM
